Measured values from US11319303B2 (WIGEN BIOMEDICINE TECHNOLOGY (SHANGHAI) CO., LTD., priority 2017, dated 2022).

Target: LC3B (Homo sapiens, UniProt Q9GZQ8)
Test: Fluorescence Polarization (FP) Assay: displacement of FITC-labeled peptide from GST-LC3B
Format: binding
Conditions: Fluorescence Polarization assay; GST-LC3B 180 nM, FITC-labeled peptide 18 nM, 25° C.; read-out: IC50
Method: The compounds of the present invention for regulating the autophagy-related protein LC3B were tested by Fluorescence Polarization (FP) Assay.
Fluorescence Polarization (FP) Assay Test

Row | Structure (SMILES) | IC50 [µM]
1 | CN(C)CCNC=C1C(=O)CC(C(=O)Nc2ccc(Cl)cc2)CC1=O (stereo not drawn) [Compound 363, N-(4-chlorophenyl)-4-(((2-(dimethylamino)ethyl)amino)methylene)-3,5-dioxocyclohexane-1-carboxamide] | 3 to 15
2 | O=C1CC(c2c[nH]c3cccc(Br)c23)CC(=O)C1=CNCCN1CCN(CCO)CC1 (stereo not drawn) [Compound 375, 5-(4-bromo-1H-indol-3-yl)-2-(((2-(4-(2-hydroxyethyl)piperazin-1-yl)ethyl)amino)methylene) cyclohexane-1,3-dione] | < 3
3 | CN(C)CCNC=C1C(=O)CC(c2cc(C(F)(F)F)ccc2F)CC1=O (stereo not drawn) [Compound 376, 2-(((2-(dimethylamino)ethyl)amino)methylene)-5-(2-fluoro-5-(trifluoromethyl)phenyl) cyclohexane-1,3-dione] | < 3
4 | CN(C)CCNC=C1C(=O)CC(c2c(C(F)(F)F)ccc(Cl)c2Cl)CC1=O (stereo not drawn) [Compound 377, 5-(2,3-dichloro-6-(trifluoromethyl)phenyl)-2-(((2-(dimethylamino)ethyl)amino)methylene) cyclohexane-1,3-dione] | < 3
5 | CN(C)CCNC=C1C(=O)CC(c2c(C(F)(F)F)ccc(Cl)c2F)CC1=O (stereo not drawn) [Compound 378, 5-(3-chloro-2-fluoro-6-(trifluoromethyl)phenyl)-2-(((2-(dimethylamino)ethyl)amino)methylene) cyclohexane-1,3-dione] | < 3
6 | COc1cc(Br)c(C2CC(=O)C(=CNCCN(C)C)C(=O)C2)cc1OC (stereo not drawn) [Compound 379, 5-(2-bromo-4,5-dimethoxyphenyl)-2-(((2-(dimethylamino)ethyl)amino)methylene) cyclohexane-1,3-dione] | < 3
7 | Cc1ccc(NC(=O)C2CC(=O)C(=CNCCN(C)C)C(=O)C2)cc1F (stereo not drawn) [Compound 380, 4-(((2-(dimethylamino)ethyl)amino)methylene)-N-(3-fluoro-4-methylphenyl)-3,5-dioxocyclohexane-1-carboxamide] | 3 to 15
8 | CN(C)CCNC=C1C(=O)CC(c2cc(C(F)(F)F)ccc2Cl)CC1=O (stereo not drawn) [Compound 381, 5-(2-chloro-5-(trifluoromethyl)phenyl)-2-(((2-(dimethylamino)ethyl)amino)methylene) cyclohexane-1,3-dione] | < 3

The remaining lines, values ahead:

Row | IC50 [µM] | Structure (SMILES)
9 | < 3 | CN(C)CCNC=C1C(=O)CC(c2cc(Cl)cc(Cl)c2Cl)CC1=O (stereo not drawn) [Compound 364, 2-(((2-(dimethylamino)ethyl)amino)methylene)-5-(2,3,5-trichlorophenyl) cyclohexane-1,3-dione]
10 | < 3 | CN(C)CCNC=C1C(=O)CC(c2ccc(Br)s2)CC1=O (stereo not drawn) [Compound 366, 5-(5-bromothiophen-2-yl)-2-(((2-(dimethylamino)ethyl)amino)methylene) cyclohexane-1,3-dione]
11 | < 3 | CN(C)CCNC=C1C(=O)CC(c2ccc(-c3ccccc3)s2)CC1=O (stereo not drawn) [Compound 367, 2-(((2-(dimethylamino)ethyl)amino)methylene)-5-(5-phenylthiophen-2-yl)cyclohexane-1,3-dione]
12 | < 3 | CN(C)CCNC=C1C(=O)CC(c2ccc(F)cc2Cl)CC1=O (stereo not drawn) [Compound 370, 5-(2-chloro-4-fluorophenyl)-2-(((2-(dimethylamino)ethyl)amino)methylene) cyclohexane-1,3-dione]
13 | < 3 | CN(C)CCNC=C1C(=O)CC(c2cscc2-c2ccccc2)CC1=O (stereo not drawn) [Compound 371, 2-(((2-(dimethylamino)ethyl)amino)methylene)-5-(4-phenylthiophen-3-yl)cyclohexane-1,3-dione]
14 | < 3 | Cc1ccc(NC(=O)CN2CCN(CCNC=C3C(=O)CC(c4ccccc4Br)CC3=O)CC2)cc1 (stereo not drawn) [Compound 372, 2-(4-(2-(((4-(2-bromophenyl)-2,6-dioxocyclo-hexylidene)methyl)amino)ethyl)piperazin-1-yl)-N-(p-tolyl) acetainide]
15 | < 3 | CNc1cccc(C2CC(=O)C(=CNCCN3CCN(CCO)CC3)C(=O)C2)c1Br (stereo not drawn) [Compound 374, 5-(2-bromo-3-(methylamino)phenyl)-2-(((2-(4-(2-hydroxyethyl)piperazin-1-yl)ethyl)amino)methylene) cyclohexane-1,3-dione]
